Reference: patent US10757939B2, “Insecticidal and nematocidal active ingredient combinations” (priority 2014, dated 2020)
Like-named read-outs stand apart in the source and are kept apart here.

Experiments:
Meloidogyne incognita [1] = assay: Meloidogyne incognita - test (gall formation, sand, salad seedlings); format: in vivo
Experimental: (§1) Formula for the Efficacy of the Combination of Two Compounds
(§2) Schneider-Orelli: Formula to Calculate Corrected Efficacy % in Pesticide Trials
Meloidogyne incognita—Test […]
Vessels are filled with sand, a solution of the active ingredient, a suspension containing eggs and larvae of the southern root-knot nematode (Meloidogyne incognita) and salad seeds. The salad seeds germinate and the seedlings grow. Galls develop in the roots.
After the specified period the nematicidal activity is determined on the basis of the percentage of gall formation.

Spodoptera frugiperda = Spodoptera frugiperda - drench test (corn plants); format: in vivo
Experimental: as §1, §2
Spodoptera frugiperda—Drench Test
(§3) • Solvent: 7 parts by weight of dimethylformamide • Emulsifier: 2 parts by weight of alkylaryl poly glycol ether
(§4) In the calculation of the concentration the soil volume has to be included. […] Further test concentrations are prepared by dilution with water.
After the specified period of time mortality in % is determined and corrected according to Schneider-Orelli's formula (see sheet 1). 100% means all the caterpillars have been killed and 0% means none of the caterpillars have been killed. The mortality values determined thus are recalculated using the Colby-formula (see sheet 1).

Myzus persicae = Myzus persicae - drench test (cabbage plants); format: in vivo; conditions: soil
Experimental: as §1, §2
Myzus persicae—Drench Test
as §3, §4
After the specified period of time mortality in % is determined. 100% means all the aphids have been killed and 0% means none of the aphids have been killed. The mortality values determined thus are recalculated using the Colby-formula (see sheet 1).

Tetranychus urticae = Tetranychus urticae - drench test; OP-resistant (bean plants); format: in vivo; conditions: for mortality at 25 ppm: Tetranychus urticae, soil, 360 h, read-out: Efficacy in % after 15 d (mortality)
Experimental: as §1, §2
Tetranychus urticae—Drench Test; OP-Resistant
as §3, §4
After the specified period of time mortality in % is determined. 100% means all the spider mites have been killed and 0% means none of the spider mites have been killed. The mortality values determined thus are recalculated using the Colby-formula (see sheet 1).

Meloidogyne incognita [2] = assay: Meloidogyne incognita - drench test (soil, salad seedlings); format: in vivo
Experimental: as §1, §2
Meloidogyne incognita—Drench Test
• Solvent: 7 parts by weight of dimethylformamide • Emulsifier: 2.5 parts by weight of alkylarylpolyglycolether
as §4
The compound solution is poured into pots filled with soil (loamy sand). A suspension containing eggs and larvae of the southern root-knot nematode (Meloidogyne incognita) is added, salad seeds are spread on the soil surface and covered with quartz sand. The salad seeds germinate and the seedlings grow. Galls develop on the roots.
After the specified period of time the nematicidal activity is determined on the basis of the percentage of gall formation. […] The activity determined thus is recalculated using the Colby-formula (see sheet 1).

[3] = 168 h, 7 d, read-out: Efficacy in % after 7d
[4] = 240 h, 10 d, read-out: Efficacy in % after 10d

C/C=C(\C)C(=O)O[C@H]1C[C@@H](OC(C)=O)[C@@]2(C(=O)OC)CO[C@H]3[C@@H](O)[C@@](C)([C@]45O[C@@]4(C)[C@H]4C[C@@H]5O[C@@H]5OC=C[C@@]54O)[C@H]4[C@]1(CO[C@]4(O)C(=O)OC)[C@@H]32 [Azadirachtin]
Efficacy in % after 14d (Meloidogyne incognita [1]; 16 ppm): 0%

CNC(=O)c1cc(C#N)cc(C)c1NC(=O)c1cc(Br)nn1-c1ncccc1Cl [Cyantraniliprole]
Efficacy in % after 14d (Spodoptera frugiperda; 0.08 ppm): 16.5%
pest or weed control at 0.1 ppm (Myzus persicae; [3]): 20%
pest or weed control at 0.1 ppm (Myzus persicae; [4]): 10%

Nc1ccn(-c2ncc(F)cc2F)n1 [intermediate (Ib-1), 1-(3,5-Difluoropyridin-2-yl)-1H-pyrazole-3-amine]
logP (logP by HPLC-MS): 0.81

Nc1ccn(-c2c(F)cccc2F)n1 [intermediate (Ia-4), 1-(2,6-Difluorophenyl)-1H-pyrazole-3-amine]
logP (logP by HPLC-MS): 1.13

N#Cc1nn(-c2c(Cl)cc(C(F)(F)F)cc2Cl)c(N)c1[S+]([O-])C(F)(F)F (stereo not drawn) [Fipronil]
pest or weed control at 5 ppm (Myzus persicae; [3]): 15%
pest or weed control at 10 ppm (Myzus persicae; [3]): 40%
pest or weed control at 5 ppm (Myzus persicae; [4]): 50%
pest or weed control at 10 ppm (Myzus persicae; [4]): 55%

O=C(Nc1ccn(-c2ncc(F)cc2F)n1)c1ccccc1C(F)(F)F [Compound (Ib), N-[1-(3,5-difluoropyridin-2-yl)-1H-pyrazol-3-yl]-2-(trifluoromethyl)benzamide]
Efficacy in % after 14d (Spodoptera frugiperda; 40 ppm): 0%
Efficacy in % after 4d (Spodoptera frugiperda; 200 ppm): 0%
Efficacy in % after 6d (Spodoptera frugiperda; 200 ppm): 0%
pest or weed control at 2 ppm (Myzus persicae; [3]): 0%
pest or weed control at 20 ppm (Myzus persicae; [3]): 0%
pest or weed control at 2 ppm (Myzus persicae; [4]): 0%
mortality at 25 ppm (Tetranychus urticae; drench, bean plants, 25 ppm, after 15 d, single compound): 0%
Efficacy in % after 21d (Meloidogyne incognita [2]; 0.75 ppm): 55%

CCOP(=O)(SC(C)CC)SC(C)CC (stereo not drawn) [Cadusafos]
Efficacy in % after 14d (Meloidogyne incognita [1]; 50 ppm): 0%
Efficacy in % after 14d (Meloidogyne incognita [1]; 100 ppm): 0%

Nc1cnn(-c2c(F)cccc2F)n1 [intermediate (Ic-8), 2-(2,6-Difluorophenyl)-2H-1,2,3-triazole-4-amine]
logP (logP by HPLC-MS): 1.16

CC(=O)NC1=NN(c2c(F)cccc2F)CC1 [intermediate (Ia-2), N-[1-(2,6-Difluorophenyl)-4,5-dihydro-1H-pyrazol-3-yl]acetamide]
logP (logP by HPLC-MS): 1.46

O=C(NCCc1ncc(C(F)(F)F)cc1Cl)c1ccccc1C(F)(F)F [Fluopyram, reference compound]
Efficacy in % after 21d (Meloidogyne incognita [2]; 0.15 ppm): 0%

CNC(=O)c1cc(C#N)cc(C)c1NC(=O)c1cc(Cn2nnc(C(F)(F)F)n2)nn1-c1ncccc1Cl [1-(3-chloropyridin-2-yl)-N-[4-cyano-2-methyl-6-(methylcarbamoyl)phenyl]-3-{[5-(trifluoromethyl)-2H-tetrazol-2-yl]methyl}-1H-pyrazole-5-carboxamide]
pest or weed control at 0.25 ppm (Myzus persicae; [3]): 0%
pest or weed control at 0.25 ppm (Myzus persicae; [4]): 0%

O=[N+]([O-])NC1=NCCN1Cc1ccc(Cl)nc1 [Imidacloprid, reference compound]
Efficacy in % after 6d (Spodoptera frugiperda; 10 ppm): 0%
Efficacy in % after 4d (Spodoptera frugiperda; 50 ppm): 22%
Efficacy in % after 6d (Spodoptera frugiperda; 50 ppm): 12%

CS/C(C)=N\OC(=O)N(C)SN(C)C(=O)O/N=C(\C)SC [Thiodicarb]
Efficacy in % after 14d (Meloidogyne incognita [1]; 50 ppm): 0%

Cc1cc(C(F)(C(F)(F)F)C(F)(F)F)ccc1NC(=O)c1cccc(I)c1C(=O)NC(C)(C)CS(C)(=O)=O [Flubendiamide, reference compound]
Efficacy in % after 14d (Spodoptera frugiperda; 4 ppm): 33%
Efficacy in % after 14d (Spodoptera frugiperda; 8 ppm): 66%

CC(=O)Nc1ccn(-c2c(F)cccc2F)n1 [intermediate (Ia-3), N-[1-(2,6-Difluorophenyl)-1H-pyrazol-3-yl]acetamide]
logP (logP by HPLC-MS): 1.33

O=C(N=c1ccccn1Cc1ccc(Cl)nc1)C(F)(F)F [N-[1-[(6-chloro-3-pyridinyl)methyl]-2(1H)-pyridinylidene]-2,2,2-trifluoro-acetamide]
pest or weed control at 0.1 ppm (Myzus persicae; [3]): 30%
pest or weed control at 0.1 ppm (Myzus persicae; [4]): 20%

O=C(Nc1cnn(-c2c(F)cccc2F)n1)c1ccccc1C(F)(F)F [Compound (Ic), N-[2-(2,6-Difluorophenyl)-2H-1,2,3-triazol-4-yl]-2-(trifluoromethyl)benzamide]
Efficacy in % after 14d (Spodoptera frugiperda; 0.2 ppm): 0%
Efficacy in % after 14d (Spodoptera frugiperda; 0.8 ppm): 0%
Efficacy in % after 4d (Spodoptera frugiperda; 200 ppm): 0%
Efficacy in % after 6d (Spodoptera frugiperda; 200 ppm): 0%
pest or weed control at 2 ppm (Myzus persicae; [3]): 0%
pest or weed control at 20 ppm (Myzus persicae; [3]): 0%
pest or weed control at 2 ppm (Myzus persicae; [4]): 0%
Efficacy in % after 14d (Meloidogyne incognita [1]; 0.25 ppm): 0%
Efficacy in % after 14d (Meloidogyne incognita [1]; 1 ppm): 0%
Efficacy in % after 14d (Meloidogyne incognita [1]; 5 ppm): 0%
Efficacy in % after 14d (Meloidogyne incognita [1]; 10 ppm): 70%
mortality at 25 ppm (Tetranychus urticae): 0%
logP (logP by HPLC-MS): 2.80

Abamectin
Efficacy in % after 14d (Meloidogyne incognita [1]; 0.02 ppm): 0%
Efficacy in % after 14d (Meloidogyne incognita [1]; 0.08 ppm): 0%

Emamectin-benzoate
Efficacy in % after 15 d (mortality) (Tetranychus urticae; drench, bean plants, 2 ppm, after 15 d, single compound): 10%

CNC(=O)Oc1cccc2c1OC(C)(C)C2 [Carbofuran]
Efficacy in % after 14d (Meloidogyne incognita [1]; 50 ppm): 0%
Efficacy in % after 14d (Meloidogyne incognita [1]; 100 ppm): 0%

CN/C(=N\[N+](=O)[O-])NCc1cnc(Cl)s1 [Clothianidin, reference compound]
Efficacy in % after 6d (Spodoptera frugiperda; 2 ppm): 0%
Efficacy in % after 4d (Spodoptera frugiperda; 10 ppm): 0%
Efficacy in % after 6d (Spodoptera frugiperda; 10 ppm): 37%

O=C(Nc1ccn(-c2c(F)cccc2F)n1)c1ccccc1C(F)(F)F [Compound (Ia), N-[1-(2,6-difluorophenyl)-1H-pyrazol-3-yl]-2-(trifluoromethyl)benzamide]
Efficacy in % after 14d (Spodoptera frugiperda; 0.2 ppm): 0%
Efficacy in % after 14d (Spodoptera frugiperda; 40 ppm): 0%
Efficacy in % after 4d (Spodoptera frugiperda; 200 ppm): 0%
Efficacy in % after 6d (Spodoptera frugiperda; 200 ppm): 0%
pest or weed control at 2 ppm (Myzus persicae; [3]): 0%
pest or weed control at 20 ppm (Myzus persicae; [3]): 0%
pest or weed control at 2 ppm (Myzus persicae; [4]): 0%
pest or weed control at 20 ppm (Myzus persicae; [4]): 0%
Efficacy in % after 14d (Meloidogyne incognita [1]; 1 ppm): 0%
Efficacy in % after 14d (Meloidogyne incognita [1]; 5 ppm): 0%
Efficacy in % after 14d (Meloidogyne incognita [1]; 10 ppm): 0%
mortality at 25 ppm (Tetranychus urticae): 10%
logP (logP by HPLC-MS): 2.68
Efficacy in % after 21d (Meloidogyne incognita [2]; 0.75 ppm): 0%

CNC(=O)c1cc(Cl)cc(C)c1NC(=O)c1cc(Br)nn1-c1ncccc1Cl [Chlorantraniliprole]
Efficacy in % after 14d (Spodoptera frugiperda; 0.04 ppm): 66.5%
pest or weed control at 0.8 ppm (Myzus persicae; 168 h, 0.8 ppm, 7 d, read-out: Efficacy in % after 7d): 10%
pest or weed control at 1.6 ppm (Myzus persicae; 168 h, 1.6 ppm, 7 d, read-out: Efficacy in % after 7d): 20%
pest or weed control at 0.4 ppm (Myzus persicae; 240 h, 0.4 ppm, 10 d, read-out: Efficacy in % after 10d): 0%

CC(C)NC(=O)N1CC(=O)N(c2cc(Cl)cc(Cl)c2)C1=O [Iprodione]
Efficacy in % after 14d (Meloidogyne incognita [1]; 50 ppm): 0%
Efficacy in % after 14d (Meloidogyne incognita [1]; 100 ppm): 0%
